In patent US6902926B1, “Toxoplasma gondii apical membrane antigen-1” (priority 2000, dated 2005):

Tested on: secretion of the 53-kDa fragment of TgAMA-1
Experiment: Secretion assay: TgAMA-1 released from tachyzoites into culture supernatant, by western blot
Assay type: cell-based, Toxoplasma gondii
Details: for secretion of the 53-kDa fragment of TgAMA-1: 2-min treatment at 37° C.
Method: Tachyzoites (2F strain, constitutively expressing cytoplasmic β-galactosidase [generous gift of David Sibley]) were washed twice in DMEM+20 mM HEPES, pH 7.0 (4 min, 1000×g, 23° C.), and resuspended in 4 ml polystyrene round bottom tubes at a concentration of 2×10^8 tachyzoites/ml. The suspension was incubated for various times at 37° C. or treated for 15 min at 23° C. with either 1.0% (v/v) DMSO or 20 μM BAPTA-AM (1.0% [v/v] DMSO final), followed by 2 min at 37° C. with 200 nM A23187 (1.0% [v/v] DMSO final) or 1.0% ethanol. Cells were pelleted (4 min, 1000×g, 4° C.) and dissolved in SDS-PAGE sample buffer. Supernatants were recentrifuged (4 min, 1000×g, 4° C.) and dissolved in sample buffer. The samples were incubated for 10 min at 100° C. and analyzed by SDS-PAGE/western blotting. Gels to be probed with either Mab B3.90 or antipeptide antiserum UVT59 were run under non-reducing conditions; blots to be probed with Mab 6D10 were run under reducing conditions. The extent of parasite lysis was determined by measuring the levels of β-galactosidase in the supernatant, as previously described.

| Compound | secretion of the 53-kDa fragment of TgAMA-1 | effect of pretreatment on ethanol/A23187-enhanced secretion of the 53-kDa fragment (pretreating the parasites before ethanol or A23187) |
| --- | --- | --- |
| CNc1ccc2oc(C[C@H]3O[C@@]4(CC[C@H]3C)O[C@H]([C@H](C)C(=O)c3ccc[nH]3)[C@H](C)C[C@H]4C)nc2c1C(=O)O [A23187] | dramatically enhanced | – |
| CCO [ethanol] | dramatically enhanced | – |
| CC(=O)OCOC(=O)CN(CC(=O)OCOC(C)=O)c1ccccc1OCCOc1ccccc1N(CC(=O)OCOC(C)=O)CC(=O)OCOC(C)=O [BAPTA-AM] | – | abrogated |
